In the supplement of paper PMC13380429:

Legend:
Details in all cases: 72 h
Caco-2 [1] = test: cell viability relative to DMSO; higher = less toxic
Calu-3 [2] = test: as above
HepG2 [3] = test: as above
U2OS [4] = test: as above
Vero E6 [5] = test: as above
Caco-2 [6] = test: relative viability EC50 (midpoint between 100% and the lowest measured viability); higher = less toxic
Calu-3 [7] = test: as above
HepG2 [8] = test: as above
U2OS [9] = test: as above
Vero E6 [10] = test: as above
Caco-2 [11] = test: drug sensitivity score (DSS) for viability; higher = more toxic; extreme values may be limits of the assay
Calu-3 [12] = test: as above
HepG2 [13] = test: as above
U2OS [14] = test: as above
Vero E6 [15] = test: as above

Row | SMILES | cell viability (Caco-2 [1]; 1 nM) | cell viability (Caco-2 [1]; 10 nM) | cell viability (Caco-2 [1]; 100 nM) | cell viability (Caco-2 [1]; 1000 nM) | cell viability (Caco-2 [1]; 10000 nM) | cell viability (Calu-3 [2]; 1 nM) | cell viability (Calu-3 [2]; 10 nM) | cell viability (Calu-3 [2]; 100 nM) | cell viability (Calu-3 [2]; 1000 nM) | cell viability (Calu-3 [2]; 10000 nM) | cell viability (HepG2 [3]; 1 nM) | cell viability (HepG2 [3]; 10 nM) | cell viability (HepG2 [3]; 100 nM) | cell viability (HepG2 [3]; 1000 nM) | cell viability (HepG2 [3]; 10000 nM) | cell viability (U2OS [4]; 1 nM) | cell viability (U2OS [4]; 10 nM) | cell viability (U2OS [4]; 100 nM) | cell viability (U2OS [4]; 1000 nM) | cell viability (U2OS [4]; 10000 nM) | cell viability (Vero E6 [5]; 1 nM) | cell viability (Vero E6 [5]; 10 nM) | cell viability (Vero E6 [5]; 100 nM) | cell viability (Vero E6 [5]; 1000 nM) | cell viability (Vero E6 [5]; 10000 nM) | relative viability EC50 (Caco-2 [6]) | relative viability EC50 (Calu-3 [7]) | relative viability EC50 (HepG2 [8]) | relative viability EC50 (U2OS [9]) | relative viability EC50 (Vero E6 [10]) | drug sensitivity score (Caco-2 [11]) | drug sensitivity score (Calu-3 [12]) | drug sensitivity score (HepG2 [13]) | drug sensitivity score (U2OS [14]) | drug sensitivity score (Vero E6 [15])
1 | CCC[C@H](N[C@H]1CCc2cc(F)cc(F)c2C1)C(=O)Nc1cn(C(C)(C)CNCC(C)(C)C)cn1 | 102% | 91.8% | 102% | 98.2% | 86.1% | 95% | 105% | 108% | 103% | 84.4% | 105% | 104% | 104% | 93.9% | 80.1% | 102% | 94.7% | 99.7% | 92.4% | 87.9% | 99.7% | 104% | 107% | 95.5% | 89.1% | > 10 µM | > 10 µM | > 10 µM | > 10 µM | > 10 µM | 0.3 | 0.2 | 1.3 | 0.2 | 0.1
2 | Oc1ccc(C2(c3ccccc3F)CCC(F)(F)CC2)cc1 [AC-186] | 104% | 95% | 98.2% | 96.2% | 102% | 91% | 98.4% | 89.3% | 105% | 104% | 95.8% | 94.7% | 100% | 96.3% | 104% | 95.1% | 96.3% | 95.5% | 99.3% | 99% | 97.4% | 96.5% | 94.2% | 92.2% | 109% | > 10 µM | > 10 µM | > 10 µM | > 10 µM | > 10 µM | 0 | 0 | 0 | 0 | 0
3 | CC(C)(CO)Cc1cc(C(C)(C)C)c(O)c(C(C)(C)C)c1 [CGP-7930] | 96.8% | 98.5% | 101% | 99.7% | 96% | 93.6% | 99.2% | 98.3% | 105% | 102% | 109% | 107% | 91.1% | 108% | 101% | 98.2% | 101% | 103% | 101% | 104% | 108% | 109% | 95.6% | 108% | 102% | > 10 µM | > 10 µM | > 10 µM | > 10 µM | > 10 µM | 0 | 0 | 0 | 0 | 0
4 | CN1C[C@@H](NS(=O)(=O)N(C)C)C[C@@H]2c3cccc4c3c(cn4C)C[C@H]21 [mesulergine] | 108% | 102% | 105% | 98.9% | 108% | 111% | 106% | 107% | 96.1% | 102% | 101% | 99.3% | 106% | 108% | 100% | 103% | 100% | 101% | 101% | 99.9% | 97.5% | 104% | 94.1% | 97.9% | 94.9% | > 10 µM | > 10 µM | > 10 µM | > 10 µM | > 10 µM | 0 | 0 | 0 | 0 | 0
